From US8017600B2, “Imidazole compounds” (Janssen Pharmaceutica NV, priority 2004, dated 2011)

Key:
human eosinophils = assay: Inhibition of histamine-induced eosinophil shape change (gated autofluorescence forward scatter assay); conditions: for Fold Change: eosinophil shape change, 10 μM antagonist; for effect on histamine-induced shape change: human eosinophils, result in words
[1] = target: T1, human histamine H4 receptor (Homo sapiens, UniProt Q9H3N8); assay: Binding assay on recombinant human histamine H4 receptor (3H-histamine displacement); conditions: membranes of SK-N-MC or COS7 cells expressing human H4 receptor, Cheng-Prusoff
T1 construct: expressed in transfected cells; host or cells: SK-N-MC cells or COS7 cells, transient transfection; cell membranes
Description: SK-N-MC cells or COS7 cells were transiently transfected with pH4R and grown in 150 cm^2 tissue culture dishes. Cells were washed with saline solution, scraped with a cell scraper and collected by centrifugation (1000 rpm, 5 min). Cell membranes were prepared by homogenization of the cell pellet in 20 mM Tris-HCl with a polytron tissue homogenizer for 10 sec at high speed. Homogenate was centrifuged at 1000 rpm for 5 min at 4° C. The supernatant was then collected and centrifuged at 20,000×g for 25 min at 4° C. The final pellet was resuspended in 50 mM Tris-HCl. Cell membranes were incubated with ^3H-histamine (5-70 nM) in the presence or absence of excess histamine (10,000 nM). Incubation occurred at room temperature for 45 min. Membranes were harvested by rapid filtration over Whatman GF/C filters and washed 4 times with ice-cold 50 mM Tris HCl. Filters were then dried, mixed with scintillant and counted for radioactivity. SK-N-MC or COS7 cells expressing human histamine H4 receptor were used to measure the affinity of binding of other compounds and their ability to displace ^3H-ligand binding by incubating the above-described reaction in the presence of various concentrations of inhibitor or compound to be tested.

Row | Ki [1] [nM] | SMILES | also measured
1 | – | CNC(=C[N+](=O)[O-])NCCSCc1ccc(CN(C)C)o1 [ranatidine] | Fold Change (human eosinophils; histamine 0 μM): 1.00; Fold Change (human eosinophils; histamine 0.01 μM): 1.04; Fold Change (human eosinophils; histamine 0.1 μM): 1.21; Fold Change (human eosinophils; histamine 1 μM): 1.49; Fold Change (human eosinophils; histamine 10 μM): 1.64; effect on histamine-induced shape change (human eosinophils): did not alter the histamine-induced shape change
2 | 230 | Cc1[nH]c(-c2ccc(OCCCN3CCN(C)CC3)nc2)nc1-c1ccc(C(F)(F)F)cc1 [Example 32, 1-Methyl-4-(3-{5-[5-methyl-4-(4-trifluoromethyl-phenyl)-1H-imidazol-2-yl]-pyridin-2-yloxy}-propyl)-piperazine] | –
3 | 165 | Cc1[nH]c(-c2ccc(OCCCC3CCN(C)CC3)cc2Cl)nc1-c1cccc(C(F)(F)F)c1 [Example 16, 4-(3-{3-Chloro-4-[5-methyl-4-(3-trifluoromethyl-phenyl)-1H-imidazol-2-yl]-phenoxy}-propyl)-1-methyl-piperidine] | –
4 | 39 | CN1CCN(CCCOc2ccc(-c3nc(-c4ccccc4)c(-c4ccccc4)[nH]3)c(Cl)c2)CC1 [Example 2, 1-{3-[3-Chloro-4-(4,5-diphenyl-1H-imidazol-2-yl)-phenoxy]-propyl}-4-methyl-piperazine] | –
5 | 11 | CN1CCCN(CCCOc2ccc(-c3nc(-c4ccc(Br)cc4)c(-c4ccc(Br)cc4)[nH]3)c(Cl)c2)CC1 [Example 9, 1-(3-{4-[4,5-Bis-(4-bromo-phenyl)-1H-imidazol-2-yl]-3-chloro-phenoxy}-propyl)-4-methyl-[1,4]diazepane] | –
6 | 1960 | CN1CCN(CCCOc2ccc(-c3ncc[nH]3)cc2Cl)CC1 [Example 42, 1-{3-[2-Chloro-4-(1H-imidazol-2-yl)-phenoxy]-propyl}-4-methyl-piperazine] | –
7 | 14 | CN1CCN(CCCOc2ccc(-c3nc(-c4ccc(Br)cc4)c(-c4ccc(Br)cc4)[nH]3)c(Cl)c2)CC1 [Example 1, 1-(3-{4-[4,5-Bis-(4-bromo-phenyl)-1H-imidazol-2-yl]-3-chloro-phenoxy}-propyl)-4-methyl-piperazine] | –
8 | 6 | COc1cccc(-c2nc(-c3ccc(OCCCN4CCCN(C)CC4)cc3Cl)[nH]c2-c2cccc(OC)c2)c1 [Example 10, 1-(3-{4-[4,5-Bis-(3-methoxy-phenyl)-1H-imidazol-2-yl]-3-chloro-phenoxy}-propyl)-4-methyl-[1,4]diazepane] | –
9 | 37 | COc1cccc(-c2nc(-c3ccc(OCCCC4CCN(C)CC4)cc3Cl)[nH]c2-c2cccc(OC)c2)c1 [Example 21, 4-(3-{4-[4,5-Bis-(3-methoxy-phenyl)-1H-imidazol-2-yl]-3-chloro-phenoxy}-propyl)-1-methyl-piperidine] | –
10 | 24 | Cc1ccc(-c2nc(-c3ccc(OCCCN4CCN(C)CC4)cc3Cl)[nH]c2-c2ccc(C)cc2)cc1 [Example 5, 1-{3-[3-Chloro-4-(4,5-di-p-tolyl-1H-imidazol-2-yl)-phenoxy]-propyl}-4-methyl-piperazine] | –
11 | 63 | Cc1[nH]c(-c2ccc(OCCCN3CCN(C)CC3)nc2)nc1-c1cccc(C(F)(F)F)c1 [Example 33, 1-Methyl-4-(3-{5-[5-methyl-4-(3-trifluoromethyl-phenyl)-1H-imidazol-2-yl]-pyridin-2-yloxy}-propyl)-piperazine] | –
12 | – | CN1CCN(C(=O)c2cc3cc(Cl)ccc3[nH]2)CC1 [H4 Antagonist, (5-chloro-1H-indol-2-yl)-(4-methyl-piperazin-1-yl)-methanone] | IC50 (human eosinophils; Homo sapiens, Eosinophil, read-out: IC50 of inhibition of histamine-induced eosinophil shape change): 270 nM
13 | 2510 | Cc1nc(-c2ccc(OCCCN3CCN(C)CC3)cc2Cl)[nH]c1C [Example 43, 1-{3-[3-Chloro-4-(4,5-dimethyl-1H-imidazol-2-yl)-phenoxy]-propyl}-4-methyl-piperazine] | –
14 | – | CN(C)CCOC(c1ccccc1)c1ccccc1 [diphenhydramine] | Fold Change (human eosinophils; histamine 0 μM): 1.00; Fold Change (human eosinophils; histamine 0.01 μM): 1.03; Fold Change (human eosinophils; histamine 0.1 μM): 1.18; Fold Change (human eosinophils; histamine 1 μM): 1.50; Fold Change (human eosinophils; histamine 10 μM): 1.63; effect on histamine-induced shape change (human eosinophils): did not alter the histamine-induced shape change
15 | 79 | CN1CCCN(CCCOc2ccc(-c3nc(-c4ccccc4)c(C(F)(F)F)[nH]3)cc2Cl)CC1 [Example 45, 1-{3-[2-Chloro-4-(4-phenyl-5-trifluoromethyl-1H-imidazol-2-yl)-phenoxy]-propyl}-4-methyl-[1,4]diazepane] | –
16 | 70 | Cc1[nH]c(-c2ccc(OCCCN3CCCN(C)CC3)c(Cl)c2)nc1-c1ccccc1 [Example 11, 1-{3-[2-Chloro-4-(5-methyl-4-phenyl-1H-imidazol-2-yl)-phenoxy]-propyl}-4-methyl-[1,4]diazepane] | –
17 | 32 | Cc1cc(OCCCC2CCN(C)CC2)ccc1-c1nc(-c2ccccc2)c(C(F)(F)F)[nH]1 [Example 14, 1-Methyl-4-{3-[3-methyl-4-(4-phenyl-5-trifluoromethyl-1H-imidazol-2-yl)-phenoxy]-propyl}-piperidine] | –
18 | 155 | CN1CCC(CCCOc2ccc(-c3nc4c([nH]3)CCCC4)c(Cl)c2)CC1 [Example 23, 2-{2-Chloro-4-[3-(1-methyl-piperidin-4-yl)-propoxy]-phenyl}-4,5,6,7-tetrahydro-1H-benzoimidazole] | –

Row | SMILES | Ki [1] [nM] | also measured
19 | CN1CCC(CCCCOc2cc(-c3nc(-c4ccccc4)c(C(F)(F)F)[nH]3)ccn2)CC1 [Example 36, 2-[4-(1-Methyl-piperidin-4-yl)-butoxy]-4-(4-phenyl-5-trifluoromethyl-1H-imidazol-2-yl)-pyridine] | 54 | –
